From ChEMBL document CHEMBL4699406, “Reversing binding sensitivity to A147T translocator protein” (RSC Med Chem, 2020)
pKi: −log10 of the molar value. Active and inactive are the calls of the source. No cut-off for these calls is given here.

Columns and labels:
Translocator protein = Translocator protein (Homo sapiens, UniProt P30536); experiment: Displacement of [3H]PK11195 from wild-type human TSPO expressed in HEK293 cell membranes after 90 mins by scintillation counting method; set-up: species or system Cell membrane
Sequence of Translocator protein (P30536 whole entry): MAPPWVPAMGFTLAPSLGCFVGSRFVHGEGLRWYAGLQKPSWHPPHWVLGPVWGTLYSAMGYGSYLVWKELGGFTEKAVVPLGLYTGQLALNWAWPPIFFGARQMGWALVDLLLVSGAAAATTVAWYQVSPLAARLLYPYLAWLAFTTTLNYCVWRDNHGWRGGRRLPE

Homo sapiens = species on record: Homo sapiens; experiment: Selectivity index, ratio of Ki for human TSPO A147T mutant expressed in HEK293 cell membranes to Ki for human TSPO expressed in HEK293 cell membranes; format: cell-based

| SMILES | pKi (Translocator protein) | Ratio Ki (Homo sapiens) |
| --- | --- | --- |
| CCN(CC)C(=O)CN(Cc1ccc(OC(C)C)cc1)c1cc(C)cc(C)c1 | 5.65 | > 4.5 |
| CCN(CC)C(=O)Cn1c(-c2ccc(OC)cc2)nc2c(C)cc(C)cc21 | 6.68 | 4.2 |
| CCN(CC)C(=O)Cn1c(-c2ccc(OC)cc2)cc2c(C)cc(C)cc21 | 6.94 | 5.7 |
| C#CCN(C)C(=O)c1nc2ccccc2n1Cc1ccc(OC)cc1 | 5.48 | > 3 |
| CCN(CC)C(=O)CN(Cc1ccc(OC)cc1)c1cc(C)cc(C)c1 | 5.92 | 3.5 |
| CCN(CC)C(=O)c1nc2ccccc2n1Cc1ccc(Cl)cc1 | < 5.00 | < 0.3 |
| C#CCN(C)C(=O)c1nc2ccccc2n1Cc1ccc(Cl)cc1 | < 5.00 | inactive |
| CC(=O)N(Cc1ccccc1)c1cc(C)cc(C)c1 | 6.56 | 4.6 |
| CC(=O)N(Cc1ccc(OCCF)cc1)c1cc(C)cc(C)c1 | 6.56 | 14.3 |
| CCN(CC)C(=O)CN(Cc1ccccc1)c1cc(C)cc(C)c1 | 6.00 | 4.2 |
| C#CCN(C)C(=O)c1cc2cc(NC(C)=O)ccc2n1Cc1ccc(OC)cc1 | 5.68 | 1.4 |
| CCN(CC)C(=O)c1nc2ccccc2n1Cc1ccc(OC)cc1 | 5.51 | > 3.3 |
| CCN(CC)C(=O)c1cc2cc(C)ccc2n1Cc1ccc(OCc2ccccc2)cc1 | < 5.00 | inactive |
| CCN(CC)C(=O)c1cc2cc(C)ccc2n1Cc1cn[nH]n1 | < 5.00 | inactive |
| CCN(CC)C(=O)c1nc2ccccc2n1Cc1ccccc1 | < 5.00 | inactive |
| C#CCN(C)C(=O)c1cc2cc(NS(C)(=O)=O)ccc2n1Cc1ccc(OC)cc1 | 5.82 | 0.5 |
| C#CCN(C)C(=O)c1cc2cc(C)ccc2n1Cc1ccc(OC)nc1 | < 5.00 | 0.1 |
| CCN(CC)C(=O)CN(Cc1ccc(OCc2ccccc2)cc1)c1cc(C)cc(C)c1 | 6.36 | 4.2 |
| CC(=O)N(Cc1ccc(OCc2ccccc2)cc1)c1cc(C)cc(C)c1 | 6.42 | 2 |
| CCN(CC)C(=O)c1nc2ccccc2n1Cc1ccc(OC)nc1 | < 5.00 | inactive |
| CCN(CC)C(=O)c1cc2cc(C)ccc2n1Cc1ccc(O)cc1 | < 5.00 | inactive |
| CC(=O)N(Cc1ccc(OC(C)C)cc1)c1cc(C)cc(C)c1 | 6.08 | 3.8 |
| CN(Cc1ccccc1)C(=O)c1nc2ccccc2n1Cc1ccc(Cl)cc1 | < 5.00 | inactive |
| COc1ccc(CN(C(C)=O)c2cc(C)cc(C)c2)cc1 | 6.30 | 5.6 |
| CCN(CC)C(=O)CN(Cc1ccc(OCCF)cc1)c1cc(C)cc(C)c1 | 5.89 | > 7.7 |
